Reference: patent US6194387A, “6-O-aklyl erythromycin B oxime” (Abbott Laboratories, priority 1999, dated 2001)
≈ marks a conversion by molar mass, not a printed value. Like-named read-outs stand apart in the source and are kept apart here.

Tests used:
[1] = tested on: STAPHYLOCOCCUS EPIDERMIDIS; experiment: in vitro antibacterial activity, agar dilution MIC; format: cell-based; conditions: Table 2, 3519, read-out: MIC
Description: (§1) 6-O-Methyl-9-oxime erythromycin B prepared in accordance with Examples 1 and 2 was assayed in vitro for anitbacterial activity as follows: Twelve petri dishes containing successive aqueous dilutions of the test compound mixed with 10 mL of sterilized Brain Heart Infusion (BHI) agar (Difco 0418-01-5) were prepared. Each plate was inoculated with 1:100 (or 1:10 for slow-growing strains, such as Micrococcus and Streptococcus) dilutions of up to 32 different micoorganisims, using a Steers replicatore block. The inoculated plates were incubated at 35-37° C. for 20 to 24 hours. In addition, a control plate, using BHI agar containing no test compound, was prepared and incubated at the beginning and end of each test.
(§2) An additional plate containing a compound having known susceptibility patterns for the organisms being tested and belonging to the same antibiotic class as the test compound was also prepared and incubated as further control, as well as to provide test-to-test comparability. Erythromycin A was used for this purpose.
(§3) After incubation, each disk was read. The minimum inhibitory concentration (MIC) was defined as the lowest concentration of drug yielding no growth, a slight haze, or sparsely isolated colonies on the inoculum spot as compared to the growth control.

PSEUDOMONAS AERUGINOSA = experiment: in vitro antibacterial activity, agar dilution MIC; format: cell-based
Description: as §1, §2, §3

[2] = tested on: ACINETOBACTER CALCOACETICUS; experiment: in vitro antibacterial activity, agar dilution MIC; format: cell-based; conditions: Table 2, CMX 669, read-out: MIC
Description: as §1, §2, §3

STAPHYLOCOCCUS PYOGENES = experiment: in vitro antibacterial activity, agar dilution MIC; format: cell-based
Description: as §1, §2, §3

PSEUDOMONAS CEPACIA = experiment: in vitro antibacterial activity, agar dilution MIC; format: cell-based; conditions: Burkholderia cepacia; Table 2; 2961; read-out: MIC
Description: as §1, §2, §3

EN[…] [3] = experiment: in vitro antibacterial activity, agar dilution MIC; format: cell-based; conditions: Enterococcus faecium, ATCC8043
Description: as §1, §2, §3

PROVIDENCIA STUART II = experiment: in vitro antibacterial activity, agar dilution MIC; format: cell-based; conditions: Table 2, CMX 640, read-out: MIC
Description: as §1, §2, §3

KLEBSIELLA PNEUMONIAE = experiment: in vitro antibacterial activity, agar dilution MIC; format: cell-based; conditions: ATCC8045, Table 2, ATCC 8045, read-out: MIC
Description: as §1, §2, §3

[4] = tested on: STAPHYLOCOCCUS PNEUMONIAE; experiment: in vitro antibacterial activity, agar dilution MIC; format: cell-based
Description: as §1, §2, §3

HAEMOPHILUS INFLUENZAE = experiment: in vitro antibacterial activity, agar dilution MIC; format: cell-based
Description: as §1, §2, §3

STAPHYLOCOCCUS AUREUS = experiment: in vitro antibacterial activity, agar dilution MIC; format: cell-based
Description: as §1, §2, §3

M[…] [5] = experiment: in vitro antibacterial activity, agar dilution MIC; format: cell-based; conditions: Micrococcus luteus, ATCC4698
Description: as §1, §2, §3

NOCARDIA ASTEROIDES = experiment: in vitro antibacterial activity, agar dilution MIC; format: cell-based; conditions: ATCC9970, Table 2, ATCC 9970, read-out: MIC
Description: as §1, §2, §3

STAPHYLOCOCCUS BOVIS = experiment: in vitro antibacterial activity, agar dilution MIC; format: cell-based; conditions: Table 2, A-5169, read-out: MIC
Description: as §1, §2, §3

MYCOBACTERIIUM SMEGMATIS = experiment: in vitro antibacterial activity, agar dilution MIC; format: cell-based; conditions: Table 2; ATCC 114; read-out: MIC
Description: as §1, §2, §3

ESCHERICHIA COLI = experiment: microbe, parasite or virus in culture; format: cell-based
Description: as §1, §2, §3

M[…] [6] = experiment: in vitro antibacterial activity, agar dilution MIC; format: cell-based, Micrococcus pyogenes; conditions: Staphylococcus aureus, ATCC9341
Description: as §1, §2, §3

EN[…] [7] = experiment: in vitro antibacterial activity, agar dilution MIC; format: cell-based, Enterobacter aerogenes; conditions: Klebsiella aerogenes, ATCC13048
Description: as §1, §2, §3

micoorganisims = experiment: in vitro antibacterial activity, overall conclusion; format: cell-based
Description: as §1, §2, §3

CANDIDA ALBICANS = experiment: in vitro antimicrobial activity, agar dilution MIC; format: cell-based; conditions: Table 2, CCH 442, read-out: MIC
Description: as §1, §2, §3

Which MIC [1] does the source give for CC[C@H]1OC(=O)[C@H](C)[C@@H](O[C@H]2C[C@@](C)(OC)[C@@H](O)[C@H](C)O2)[C@H](C)[C@@H](O[C@@H]2O[C@H](C)C[C@H](N(C)C)[C@H]2O)[C@](C)(OC)C[C@@H](C)C(=NO)[C@H](C)[C@@H](O)[C@H]1C [6-O-Methyl-9-oxime erythromycin B] here?
Its MIC is 0.39 µg/mL (≈ 0.522 µM).

What about the MIC (PSEUDOMONAS AERUGINOSA; Table 2, 5007, read-out: MIC) of the same compound?
The MIC was > 100 µg/mL.

And the MIC (PSEUDOMONAS AERUGINOSA; Table 2, DPHD-2862, read-out: MIC)?
Its MIC is > 100 µg/mL.

What about the MIC (PSEUDOMONAS AERUGINOSA; Table 2, DPHD-5263, read-out: MIC) of the same compound?
The MIC was > 100 µg/mL.

What about the MIC (PSEUDOMONAS AERUGINOSA; Table 2, K799/61, read-out: MIC) of the same compound?
The MIC was 1.56 µg/mL (≈ 2.09 µM).

And the MIC [2]?
Its MIC is 50 µg/mL (≈ 66.9 µM).

And the MIC (STAPHYLOCOCCUS PYOGENES; Table 2, 930)?
Its MIC is > 100 µg/mL.

What about the MIC (STAPHYLOCOCCUS PYOGENES; Table 2, EES61, read-out: MIC) of the same compound?
Its MIC is 0.02 µg/mL (≈ 0.0268 µM).

And the MIC (STAPHYLOCOCCUS PYOGENES; Table 2, PIU 2548, read-out: MIC)?
Its MIC is 6.2 µg/mL (≈ 8.3 µM).

What about the MIC (STAPHYLOCOCCUS PYOGENES; Table 3, 930, read-out: MIC) of the same compound?
The MIC was > 128 µg/mL.

And the MIC (STAPHYLOCOCCUS PYOGENES; Table 3, EES61, read-out: MIC)?
The MIC was 0.03 µg/mL (≈ 0.0402 µM).

And the MIC (STAPHYLOCOCCUS PYOGENES; Table 3, PIU 2548, read-out: MIC)?
The MIC was 16 µg/mL (≈ 21.4 µM).

What about the MIC (PSEUDOMONAS CEPACIA) of the same compound?
The MIC was > 100 µg/mL.

And the MIC (EN[…] [3])?
Its MIC is 0.1 µg/mL (≈ 0.134 µM).

And the MIC (PROVIDENCIA STUART II)?
The MIC was > 100 µg/mL.

And the MIC (KLEBSIELLA PNEUMONIAE)?
Its MIC is > 100 µg/mL.

What about the MIC ([4]; Table 3, 5649, read-out: MIC) of the same compound?
Its MIC is 16 µg/mL (≈ 21.4 µM).

What about the MIC ([4]; Table 3, 5654, read-out: MIC) of the same compound?
The MIC was 16 µg/mL (≈ 21.4 µM).

And the MIC ([4]; Table 3, 5728, read-out: MIC)?
The MIC was > 128 µg/mL.

And the MIC ([4]; Table 3, 5737, read-out: MIC)?
The MIC was > 128 µg/mL.

And the MIC ([4]; Table 3, 5979, read-out: MIC)?
The MIC was > 128 µg/mL.

What about the MIC ([4]; Table 3, GYR 1171, read-out: MIC) of the same compound?
The MIC was 0.03 µg/mL (≈ 0.0402 µM).

And the MIC (HAEMOPHILUS INFLUENZAE; ATCC10211, Table 3, ATCC 10211, read-out: MIC)?
The MIC was 16 µg/mL (≈ 21.4 µM).

And the MIC (HAEMOPHILUS INFLUENZAE; ATCC19418, Table 3, ATCC 19418, read-out: MIC)?
Its MIC is 32 µg/mL (≈ 42.8 µM).

And the MIC (HAEMOPHILUS INFLUENZAE; ATCC43095, Table 3, ATCC 43095, read-out: MIC)?
The MIC was 8 µg/mL (≈ 10.7 µM).

And the MIC (HAEMOPHILUS INFLUENZAE; Table 3, CMX 503B, read-out: MIC)?
The MIC was 16 µg/mL (≈ 21.4 µM).

What about the MIC (HAEMOPHILUS INFLUENZAE; Table 3, CMX 504, read-out: MIC) of the same compound?
The MIC was 16 µg/mL (≈ 21.4 µM).

What about the MIC (HAEMOPHILUS INFLUENZAE; Table 3, CMX 519A, read-out: MIC) of the same compound?
Its MIC is 16 µg/mL (≈ 21.4 µM).

And the MIC (HAEMOPHILUS INFLUENZAE; Table 3, CMX 566A, read-out: MIC)?
Its MIC is 16 µg/mL (≈ 21.4 µM).

What about the MIC (HAEMOPHILUS INFLUENZAE; Table 3, CMX 588A, read-out: MIC) of the same compound?
The MIC was 16 µg/mL (≈ 21.4 µM).

And the MIC (HAEMOPHILUS INFLUENZAE; Table 3, CMX 632A, read-out: MIC)?
Its MIC is 8 µg/mL (≈ 10.7 µM).

What about the MIC (HAEMOPHILUS INFLUENZAE; Table 3, CMX 747C, read-out: MIC) of the same compound?
The MIC was 16 µg/mL (≈ 21.4 µM).

And the MIC (HAEMOPHILUS INFLUENZAE; Table 3, CMX 751, read-out: MIC)?
The MIC was 32 µg/mL (≈ 42.8 µM).

And the MIC (HAEMOPHILUS INFLUENZAE; Table 3, GYR 1177, read-out: MIC)?
The MIC was 1 µg/mL (≈ 1.34 µM).

What about the MIC (HAEMOPHILUS INFLUENZAE; Table 3, GYR 1435, read-out: MIC) of the same compound?
The MIC was 16 µg/mL (≈ 21.4 µM).

And the MIC (HAEMOPHILUS INFLUENZAE; Table 3, SOL AMP R, read-out: MIC)?
Its MIC is 16 µg/mL (≈ 21.4 µM).

And the MIC (HAEMOPHILUS INFLUENZAE; Table 3, SPK AMP R, read-out: MIC)?
The MIC was 16 µg/mL (≈ 21.4 µM).

And the MIC (STAPHYLOCOCCUS AUREUS; ATCC6538P, Table 2, ATCC 6538P, read-out: MIC)?
Its MIC is 0.39 µg/mL (≈ 0.522 µM).

What about the MIC (STAPHYLOCOCCUS AUREUS; Table 2, A5177, read-out: MIC) of the same compound?
The MIC was 6.2 µg/mL (≈ 8.3 µM).

And the MIC (STAPHYLOCOCCUS AUREUS; Table 2, A-5278, read-out: MIC)?
The MIC was > 100 µg/mL.

And the MIC (STAPHYLOCOCCUS AUREUS; Table 2, CMX 553, read-out: MIC)?
Its MIC is 0.78 µg/mL (≈ 1.04 µM).

What about the MIC (STAPHYLOCOCCUS AUREUS; Table 2, CMX 642A, read-out: MIC) of the same compound?
The MIC was 0.78 µg/mL (≈ 1.04 µM).

And the MIC (STAPHYLOCOCCUS AUREUS; Table 2, NCTC10649M, read-out: MIC)?
The MIC was 0.39 µg/mL (≈ 0.522 µM).

What about the MIC (M[…] [5]) of the same compound?
The MIC was 0.78 µg/mL (≈ 1.04 µM).

And the MIC (NOCARDIA ASTEROIDES)?
The MIC was 0.1 µg/mL (≈ 0.134 µM).

What about the MIC (STAPHYLOCOCCUS BOVIS) of the same compound?
The MIC was 0.05 µg/mL (≈ 0.0669 µM).

And the MIC (MYCOBACTERIIUM SMEGMATIS)?
The MIC was 0.39 µg/mL (≈ 0.522 µM).

And the MIC (ESCHERICHIA COLI; Table 2, DC-2)?
Its MIC is > 100 µg/mL.

And the MIC (ESCHERICHIA COLI; Table 2, H560)?
The MIC was 100 µg/mL (≈ 134 µM).

What about the MIC (ESCHERICHIA COLI; Table 2, JUHL) of the same compound?
The MIC was 50 µg/mL (≈ 66.9 µM).

What about the MIC (ESCHERICHIA COLI; Table 2, KNK 437) of the same compound?
The MIC was 100 µg/mL (≈ 134 µM).

What about the MIC (ESCHERICHIA COLI; Table 2, SS) of the same compound?
Its MIC is 0.78 µg/mL (≈ 1.04 µM).

And the MIC (M[…] [6])?
The MIC was 0.05 µg/mL (≈ 0.0669 µM).

And the MIC (EN[…] [7])?
Its MIC is > 100 µg/mL.

What about the “antibacterial activity (conclusion from Tables 2 and 3)” value (micoorganisims) of the same compound?
The value was “effective antibacterial agent”.

And the MIC (CANDIDA ALBICANS)?
The MIC was > 100 µg/mL.
